From PubChem BioAssay (NCI)
Several values for one entry are separate records, joined by “and”; a condition that tells them apart may be missing. Equal entries are not always repeated.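 In this assay, cells in 96-well plates receive the compound at five concentrations for 48 hours. Endpoints are linearly interpolated between the surrounding concentrations. GI50 is the concentration that inhibits growth by half. TGI: total growth inhibition.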

Tests used:
Assay in all cases: inhibition of tumour cell growth, NCI panel, 48 h
A549 NSCLC = system: A549 NSCLC
HT29 colon = system: HT29 colon
MOLT-4 leukemia = system: MOLT-4 leukemia
NCI-H23 lung = system: NCI-H23 lung
SK-MEL-28 melanoma = system: SK-MEL-28 melanoma
UACC-257 melanoma = system: UACC-257 melanoma
CAKI-1 renal = system: CAKI-1 renal
HL-60(TB) leukemia = system: HL-60(TB) leukemia
NCI/ADR-RES ovarian = system: NCI/ADR-RES ovarian
PC-3 prostate = system: PC-3 prostate

CCOC(=O)C(NO)C(Sc1ccccc1)c1ccc(OC)cc1 (stereo unspecified)
TGI (A549 NSCLC): > 100 µM
TGI (HT29 colon): > 100 µM
TGI (MOLT-4 leukemia): > 100 µM
TGI (NCI-H23 lung): > 100 µM
TGI (SK-MEL-28 melanoma): > 100 µM
TGI (UACC-257 melanoma): > 100 µM

COc1cc(C2C(C(=O)Nc3ccc([N+](=O)[O-])cc3)=C(C)NC(C)=C2C(=O)Nc2ccc([N+](=O)[O-])cc2)ccc1O
TGI (A549 NSCLC): > 100 µM
TGI (CAKI-1 renal): > 86.6 µM
TGI (HL-60(TB) leukemia): > 100 µM
TGI (HT29 colon): 38.1 µM
TGI (MOLT-4 leukemia): 75.4 µM
TGI (NCI-H23 lung): > 77.1 µM
TGI (SK-MEL-28 melanoma): 31.3 µM
TGI (UACC-257 melanoma): 54.6 µM

CCN(CC)CC(=O)NC1c2ccccc2Oc2c(C)cccc21 (stereo unspecified)
TGI (A549 NSCLC): > 100 µM
TGI (HL-60(TB) leukemia): > 100 µM
TGI (HT29 colon): > 100 µM
TGI (MOLT-4 leukemia): > 100 µM
TGI (NCI-H23 lung): > 100 µM
TGI (SK-MEL-28 melanoma): > 100 µM
TGI (UACC-257 melanoma): > 100 µM

CN(C)C(=O)NC(=S)N(C)C
TGI (A549 NSCLC): > 100 µM
TGI (CAKI-1 renal): > 100 µM
TGI (HL-60(TB) leukemia): > 100 µM
TGI (HT29 colon): > 100 µM
TGI (MOLT-4 leukemia): > 100 µM
TGI (NCI-H23 lung): > 100 µM
TGI (SK-MEL-28 melanoma): > 100 µM
TGI (UACC-257 melanoma): > 100 µM

CC(=O)OC(C)(C)/C=C/C(=O)[C@](C)(O)[C@H]1[C@H](O)C[C@@]2(C)[C@@H]3CC=C4[C@@H](C=C(O)C(=O)C4(C)C)[C@]3(C)C(=O)C[C@]12C
TGI (A549 NSCLC): 6.51 µM and 1.23 µM and 2.65 µM
TGI (CAKI-1 renal): 44 nM [middle of 4 runs]
TGI (NCI/ADR-RES ovarian): 5.45 µM and 6.12 µM and 5.39 µM
GI50 (PC-3 prostate): 0.0408 µM
TGI (PC-3 prostate): 1.48 µM

CCOc1ccc(OCC)c([P+](c2ccccc2)(c2ccccc2)c2ccccc2)c1
TGI (A549 NSCLC): 11.6 µM
TGI (CAKI-1 renal): 6.1 µM
TGI (HL-60(TB) leukemia): 0.529 µM
TGI (HT29 colon): 12.9 µM
TGI (NCI-H23 lung): 1.17 µM
TGI (SK-MEL-28 melanoma): 16.8 µM
TGI (UACC-257 melanoma): 3.8 µM

CCN(CC)c1ccc(C2NC(=O)c3ccccc3N2)cc1 (stereo unspecified)
TGI (A549 NSCLC): > 100 µM
TGI (CAKI-1 renal): > 26.5 µM
TGI (HT29 colon): > 20.8 µM
TGI (MOLT-4 leukemia): > 100 µM
TGI (NCI-H23 lung): > 100 µM
TGI (NCI/ADR-RES ovarian): > 100 µM
TGI (PC-3 prostate): > 100 µM
TGI (SK-MEL-28 melanoma): > 100 µM
TGI (UACC-257 melanoma): > 100 µM

CC(=O)[CH-]C(=O)c1ccccc1.CC(=O)[CH-]C(=O)c1ccccc1.CC(C)CCC[C@H](C)C1CCC2[C@@H]3CC=C4C[C@@H]([O-])CC[C@]4(C)C3CC[C@@]21C.CC(C)CCC[C@H](C)C1CCC2[C@@H]3CC=C4C[C@@H]([O-])CC[C@]4(C)C3CC[C@@]21C.Cl.[Ti+4] (stereo partly specified)
GI50 (A549 NSCLC): > 25 µM
TGI (A549 NSCLC): > 25 µM
GI50 (CAKI-1 renal): > 25 µM
TGI (CAKI-1 renal): > 25 µM
GI50 (HL-60(TB) leukemia): 13.7 µM
TGI (HL-60(TB) leukemia): > 25 µM
GI50 (HT29 colon): > 25 µM
TGI (HT29 colon): > 25 µM
GI50 (MOLT-4 leukemia): > 25 µM
TGI (MOLT-4 leukemia): > 25 µM
GI50 (NCI-H23 lung): > 25 µM
TGI (NCI-H23 lung): > 25 µM
GI50 (SK-MEL-28 melanoma): > 25 µM
TGI (SK-MEL-28 melanoma): > 25 µM
GI50 (UACC-257 melanoma): > 25 µM
TGI (UACC-257 melanoma): > 25 µM

COc1cc(/C=C/c2ccc(Br)cc2)cc(OC)c1OC
TGI (A549 NSCLC): > 100 µM
TGI (CAKI-1 renal): > 87 µM
TGI (HL-60(TB) leukemia): 19 µM
TGI (HT29 colon): > 39.3 µM
TGI (MOLT-4 leukemia): 15.6 µM
TGI (NCI-H23 lung): > 81.2 µM
TGI (SK-MEL-28 melanoma): 48 µM
TGI (UACC-257 melanoma): > 95.5 µM

CC1=C(C(=O)NCc2ccccc2)C(c2ccccc2C)C(C(=O)NCc2ccccc2)=C(C)N1
TGI (A549 NSCLC): > 100 µM
TGI (CAKI-1 renal): > 100 µM
TGI (HL-60(TB) leukemia): 59.3 µM
TGI (HT29 colon): 73 µM
TGI (MOLT-4 leukemia): > 100 µM
TGI (NCI-H23 lung): > 93.6 µM
TGI (SK-MEL-28 melanoma): > 67.3 µM
TGI (UACC-257 melanoma): > 76.4 µM

O=C(CO[N+](=O)[O-])OC/C=C/c1ccccc1
TGI (A549 NSCLC): > 100 µM
TGI (CAKI-1 renal): > 100 µM
TGI (HL-60(TB) leukemia): 60.6 µM
TGI (HT29 colon): > 100 µM
TGI (MOLT-4 leukemia): > 100 µM
TGI (NCI-H23 lung): > 100 µM
TGI (UACC-257 melanoma): > 100 µM

CN(C)CCn1cnc2ncccc2c1=O
TGI (A549 NSCLC): > 100 µM
TGI (CAKI-1 renal): > 100 µM
TGI (HT29 colon): > 100 µM
TGI (MOLT-4 leukemia): > 100 µM
TGI (NCI-H23 lung): > 100 µM
TGI (SK-MEL-28 melanoma): > 100 µM

CC1CCC(=O)C(C(O)CC2CC(=O)N(c3ccccc3)C(=O)C2)C1 (stereo unspecified)
TGI (A549 NSCLC): > 100 µM
TGI (CAKI-1 renal): > 100 µM
TGI (HL-60(TB) leukemia): > 100 µM
TGI (HT29 colon): > 100 µM
TGI (MOLT-4 leukemia): > 100 µM
TGI (NCI-H23 lung): > 100 µM
TGI (SK-MEL-28 melanoma): > 100 µM
TGI (UACC-257 melanoma): > 100 µM

Cc1ccc(-c2nc(N3CCNCC3)c3oc(-c4ccccc4)nc3n2)cc1
GI50 (A549 NSCLC): 1.66 µM
TGI (A549 NSCLC): 3.13 µM
GI50 (CAKI-1 renal): 1.73 µM
TGI (CAKI-1 renal): 3.26 µM
GI50 (HL-60(TB) leukemia): 1.43 µM
TGI (HL-60(TB) leukemia): 3.09 µM
GI50 (HT29 colon): 1.78 µM
TGI (HT29 colon): 3.32 µM
GI50 (MOLT-4 leukemia): 1.91 µM
TGI (MOLT-4 leukemia): 3.67 µM
GI50 (NCI-H23 lung): 3.07 µM
TGI (NCI-H23 lung): 16.7 µM
GI50 (PC-3 prostate): 1.7 µM
TGI (PC-3 prostate): 3.19 µM
GI50 (SK-MEL-28 melanoma): 1.91 µM
TGI (SK-MEL-28 melanoma): 3.39 µM
GI50 (UACC-257 melanoma): > 100 µM
TGI (UACC-257 melanoma): > 100 µM

CCCCCCCCCCSC(=O)NC
TGI (A549 NSCLC): > 100 µM
TGI (CAKI-1 renal): > 100 µM
TGI (HL-60(TB) leukemia): 39.9 µM
TGI (HT29 colon): 77 µM
TGI (MOLT-4 leukemia): 46.5 µM
TGI (NCI-H23 lung): 99.8 µM
TGI (SK-MEL-28 melanoma): 68.4 µM
TGI (UACC-257 melanoma): 85 µM

COc1ccc(-c2ccccc2)c2[nH]c3c(c12)CCNC3=O
TGI (A549 NSCLC): > 100 µM
TGI (CAKI-1 renal): > 100 µM
TGI (HL-60(TB) leukemia): > 100 µM
TGI (HT29 colon): > 100 µM
TGI (MOLT-4 leukemia): > 100 µM
TGI (NCI-H23 lung): > 100 µM
TGI (UACC-257 melanoma): > 100 µM

COC1[C@H](NC(=O)OC(C)(C)C)C(=O)N1Cc1ccccc1 (stereo partly specified)
TGI (A549 NSCLC): > 100 µM
TGI (HL-60(TB) leukemia): > 100 µM
TGI (HT29 colon): > 100 µM
TGI (MOLT-4 leukemia): > 100 µM
TGI (NCI-H23 lung): > 100 µM
TGI (SK-MEL-28 melanoma): > 100 µM
TGI (UACC-257 melanoma): > 100 µM

CCCCCCCCCCCCCCCCc1c(C(=O)OC)nc(NN)[nH]c1=O
TGI (A549 NSCLC): > 50 µM
TGI (CAKI-1 renal): > 50 µM
TGI (HL-60(TB) leukemia): > 50 µM
TGI (HT29 colon): > 50 µM
TGI (MOLT-4 leukemia): > 50 µM
TGI (NCI-H23 lung): > 50 µM
TGI (SK-MEL-28 melanoma): > 50 µM
TGI (UACC-257 melanoma): > 50 µM
